From US20260102407A1, “TREATMENT METHODS” (priority 2020, published 2026)

Columns and labels:
Format in all cases: cell-based, human
HMEC-1 = experiment: Endothelial network formation assay on Matrigel
Protocol: Endothelial network formation assay. HMEC-1 (4×10^4 cells/well) in MCDB131 containing 1% FBS and compound (1 or 3 μM) or curcumin (1-40 μM) and 50 ng/ml FGF-2 were added to 96-well plates coated overnight at 4° C. with 100 μl of growth factor-reduced reconstituted basement membrane matrix (Matrigel, cat. 354230, Corning, NY). Network formation was observed over subsequent hours and photographed under 4× or 10× objective using an Olympus CKX41 microscope.

c-Fos = experiment: Western blot, serum-inducible c-Fos expression in HMEC-1; conditions: 30 μM compound, 10% FBS 1 h
Protocol: Western blot analysis with extracts of cells treated with serum. HMEC-1 (80-90% confluency) were arrested in serum-free MCDB131 medium without EGF or hydrocortisone for 20 h. Cells were treated with 30 μM compound in serum-free MCDB131 medium for 4 h, and the medium was changed to complete medium (with 10% FBS with EGF and hydrocortisone) with 30 μM compound for 1 h. Total protein was harvested as previously described in radioimmunoprecipitation (RIPA) lysis buffer with protease inhibitors (Li, Y., et al., Int J Cardiol 220, 185-191 (2016)). Proteins were resolved on 4-20% (w/v) sodium dodecyl sulfate (SDS)-polyacrylamide gradient gels (Bio-Rad Mini-PROTEAN TGX) and transferred to Immobilon-P PVDF membranes (Millipore, USA). Membranes were blocked with 5% skim milk and incubated with rabbit monoclonal FosB (cat. 2251, 1:1000, Cell Signaling, USA), rabbit monoclonal c-Fos antibodies (cat. 2250, 1:1000, Cell Signaling, USA) at 4° C. overnight or mouse monoclonal […] antibodies (cat. A5316, 1:30000, Sigma-Aldrich) at 22° C. for 15 min then incubated with a horseradish peroxidase conjugated secondary goat anti-rabbit (cat. P0448, 1:1000, DAKO Cytomation, Denmark) or goat anti-mouse (cat. P0447, 1:1000, DAKO Cytomation, Denmark) antibodies for 1 h. Chemiluminescence was detected using the Western Lightning Chemiluminescence system (PerkinElmer, USA) and ImageQuant™ LAS 4000 biomolecular imager (GE Healthcare Life Sciences, USA). Band intensity in images generated with the LAS 4000 on automatic exposure with sensitivity/resolution setting high was quantified using NIH ImageJ.

FosB/ΔFosB = experiment: Western blot, IL-1β-inducible FosB/ΔFosB expression in HMEC-1; conditions: 30 μM, 20 ng/ml IL-1β up to 4 h
Protocol: Western blot analysis with extracts of cells treated with IL-13. HMEC-1 (80-90% confluency) were arrested in serum-free MCDB131 medium (Invitrogen, MD) without any growth factor for 48 h. Cells were treated with 30 μM compound in serum-free medium for 4 h, and incubated with 20 ng/ml IL-1β (Sigma, cat. SRE3083) in serum-free medium with the same concentration of compound for up to 4 h, unless otherwise indicated. Total protein was harvested as previously described using RIPA buffer with protease inhibitors. Proteins were resolved on 4-20% (w/v) SDS-polyacrylamide gradient gels and transferred to Immobilon-P PVDF membranes. […] Chemiluminescence was detected using the Western Lightning Chemiluminescence system and ImageQuant™ LAS 4000 biomolecular imager. Band intensity in images generated with the LAS 4000 using the same settings were quantified by NIH ImageJ.

AP-1 response element = AP-1 response element Firefly luciferase high-throughput screen in 293/AP-1-luc cells; conditions: 11-point titration curves; TPA-induced 293/AP-1-luc cells
Source text: High-throughput screen of compound library. Hits were selected from the ˜100,000 compound Lead Discovery Library at the HTS Facility at Walter & Eliza Hall Institute of Medical Research (WEHI, Bundoora, Vic) with a commercially-available human embryonic kidney (HEK)-293 cell-based assay in 384-well microtitre plates in which Firefly luciferase was driven by multiple copies of the AP-1 response element (293/AP-1-luc cells, Panomics, Fremont, CA). Briefly, the cell-based assay involved plating 5×10^3 cells into 384-well plates in DMEM, pH 7.4 containing 10% FBS. After ˜18 h, the cells were induced with 10 ng/ml […] (TPA) (Sigma, St Louis, MO) in the absence or presence of test compound, then after ˜18 h, luciferase activity was measured using a luminometer. The hit rate of the primary screen was 2.4%. […] A substructure filter was then applied to remove pan-assay interference compounds (Baell, J. B., et al., J Med Chem 53, 2719-2740 (2010)) and using the most stringent filtering criteria 256 hits were selected for further study. After dose response testing, 24 compounds with molecular weight <400 Da were reordered from suppliers and tested in secondary assays.

## CCOC(=O)Nc1ccc2c(c1)C(=O)N(CC)c1ccccc1O2 [BT2, (10-ethyl-11-oxo-10,11-dihydro-dibenzo[b,f][1,4]oxazepin-2-yl)-carbamic acid ethyl ester]
HMEC-1; 1 μM, after 4 h
  endothelial network formation: abolished network formation
HMEC-1; 3 μM, 1% FBS, 50 ng/ml FGF-2, 2, 4, 6 and 24 h
  endothelial network (tubule) formation on Matrigel: inhibited network formation
HMEC-1; after 4 h
  potency relative to curcumin in network formation assay: > 40 fold
c-Fos
  serum-inducible c-Fos expression (Western blot): blocked the inducible expression of c-Fos
FosB/ΔFosB
  IL-1β-inducible FosB/ΔFosB expression (Western blot): inhibited
AP-1 response element
  IC50, AP-1 luciferase screen: micromolar or submicromolar range
